Results taken from US4076849A, “Control of nitrosamine formation in nitrite cured meat” (Canada Packers Limited, priority 1975, dated 1978).

Legend:
[1] = Nitrosamine content after frying cured bacon slices streaked with a soya oil solution of the aromatic secondary amine; settings: 100 ppm
Protocol: In the case of o-methoxy-N-dodecylaminobenzene samples were tested at 100, 200 and 300 ppm levels. The controls were streaked with oil alone.

[2] = in vivo; cited from earlier work
[3] = Table III, controls (ppb): Ex 30 76.0 and 60.0, 31 29.0, 32-33 42.5, 34 32.5, 35-39 28.2, 40 17.5, 41 20.0, 42 19.1, 43-44 34.0, 45 23.0, below about 3 ppb is below accurate detection level

SMILES	NITROSAMINES Test [1, 3] [ppb]	carcinogenic in tests on experimental animals [2]	also measured
CCCCCCCCCCCCNc1ccccc1 [Example 47, N-Dodecylaminobenzene]	–	–	NITROSAMINES Test ([1]; Table IV, controls (ppb): Ex 46 34.0, 47 76.0, 48-49 41.0, 50-54 36.2): 16.0 ppb
CCCCCCCCCCCCNc1ccc(OC)cc1OC [Example 45, o,p-Dimethoxy-N-dodecylaminobenzene]	2.5	–	–
CN(C)N=O [dimethylnitrosamine]	–	carcinogenic	–
CCOc1ccc(NC(C)(C)C)cc1 [Example 42, p-Ethoxy-N-t-butylaminobenzene]	2.2	–	–
O=NN1CCCC1 [N-nitrosopyrrolidine]	–	carcinogenic	–
